Test results as given in ChEMBL document CHEMBL1201862, “PubChem BioAssay data set” (2004).
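The compound was tested at five concentrations on cells cultured in 96-well plates, with a 48-hour exposure period. GI50 is the concentration that inhibits growth by half.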 The source made the active and inactive calls. No stated cut-off is given here; in the data, active = GI50 up to about 1.1 µM and inactive = higher.

Experiments:
Experiment in all cases: NCI anticancer screen, dose series, 48 h
CAKI-1 = test system: CAKI-1
MDA-N = test system: MDA-N
UACC-257 = test system: UACC-257
RPMI-8226 = test system: RPMI-8226
T47D = test system: T47D
SF-295 = test system: SF-295
Malme-3M = test system: Malme-3M
ACHN = test system: ACHN
SNB-19 = test system: SNB-19
BT-549 = test system: BT-549
UACC-62 = test system: UACC-62
Hs-578T = test system: Hs-578T
IGROV-1 = test system: IGROV-1
OVCAR-4 = test system: OVCAR-4
SK-MEL-5 = test system: SK-MEL-5
NCI-H23 = test system: NCI-H23
MDA-MB-231 = test system: MDA-MB-231
HL-60 = test system: HL-60
SK-MEL-2 = test system: SK-MEL-2
OVCAR-5 = test system: OVCAR-5

Measured: GI50

COc1ccc(C(=O)/C=C/c2ccc3c(c2)OCO3)c(OCc2ccccc2)c1
inactive: CAKI-1 11.8 µM | MDA-N 11.7 µM | UACC-257 > 63 µM | RPMI-8226 4.45 µM | T47D > 43.5 µM | SF-295 > 61.8 µM | Malme-3M > 100 µM | ACHN 16.6 µM | SNB-19 > 100 µM | BT-549 4.79 µM | UACC-62 17.4 µM | Hs-578T 7.82 µM | IGROV-1 17.7 µM | OVCAR-4 15.1 µM | SK-MEL-5 25.6 µM | NCI-H23 24.3 µM | MDA-MB-231 > 70.1 µM | HL-60 2.01 µM | SK-MEL-2 > 57.1 µM | OVCAR-5 > 76.7 µM

Clc1ccc(C(OCn2ccnc2)c2nc3ccccc3[nH]2)c(Cl)c1 (stereo not given)
inactive: CAKI-1 87.3 µM | MDA-N 37.5 µM | UACC-257 35.5 µM | RPMI-8226 24.6 µM | T47D 39.1 µM | SF-295 29.6 µM | Malme-3M 88.9 µM | ACHN 26.4 µM | SNB-19 89.3 µM | BT-549 26.1 µM | UACC-62 35 µM | Hs-578T 59.3 µM | IGROV-1 43.3 µM | OVCAR-4 16.6 µM | SK-MEL-5 16.2 µM | NCI-H23 32.2 µM | MDA-MB-231 84.5 µM | HL-60 22.1 µM | SK-MEL-2 42.7 µM | OVCAR-5 > 100 µM

CC1C=C(NCC2(CO)CCC2)N=C(N)N1 (stereo not given)
inactive: CAKI-1 > 100 µM | MDA-N > 100 µM | UACC-257 > 100 µM | RPMI-8226 > 100 µM | T47D > 100 µM | SF-295 > 100 µM | Malme-3M > 100 µM | ACHN > 100 µM | SNB-19 > 100 µM | BT-549 > 100 µM | UACC-62 > 100 µM | Hs-578T > 100 µM | IGROV-1 > 100 µM | OVCAR-4 > 100 µM | SK-MEL-5 > 100 µM | NCI-H23 > 100 µM | MDA-MB-231 > 100 µM | HL-60 > 100 µM | SK-MEL-2 > 100 µM | OVCAR-5 > 100 µM

CN(C)c1ccc2c(SCC(=O)OCC(=O)[C@@]3(O)CC[C@H]4[C@@H]5CCC6=CC(=O)C=C[C@]6(C)[C@H]5C(=O)C[C@@]43C)c3ccc(N(C)C)cc3nc2c1
inactive: CAKI-1 23.6 µM | MDA-N 14.4 µM | UACC-257 15.7 µM | RPMI-8226 14.6 µM | T47D 17.4 µM | SF-295 14 µM | Malme-3M > 100 µM | ACHN 4.53 µM | SNB-19 23.7 µM | BT-549 9.59 µM | UACC-62 10.8 µM | Hs-578T > 100 µM | IGROV-1 6.52 µM | OVCAR-4 10.9 µM | SK-MEL-5 15 µM | NCI-H23 16.7 µM | MDA-MB-231 27.5 µM | HL-60 1.24 µM | SK-MEL-2 24.5 µM | OVCAR-5 32.1 µM

C[n+]1ccccc1/C=C/c1ccc2c(c1)OCO2
inactive: CAKI-1 > 10 µM | MDA-N > 10 µM | UACC-257 > 10 µM | RPMI-8226 > 10 µM | T47D > 10 µM | SF-295 > 10 µM | Malme-3M > 10 µM | ACHN > 10 µM | SNB-19 > 10 µM | BT-549 > 10 µM | UACC-62 > 10 µM | Hs-578T > 10 µM | IGROV-1 > 10 µM | OVCAR-4 > 10 µM | SK-MEL-5 > 10 µM | NCI-H23 > 10 µM | MDA-MB-231 > 10 µM | HL-60 > 10 µM | SK-MEL-2 > 10 µM | OVCAR-5 > 10 µM

O=c1[nH]cc(F)c(=O)[nH]1 [FLUOROURACIL]
inactive: CAKI-1 4.45 µM | MDA-N 8.07 µM | UACC-257 95.7 µM | RPMI-8226 4.91 µM | T47D 75.5 µM | SF-295 51.9 µM | Malme-3M 22.5 µM | ACHN 9.62 µM | SNB-19 116 µM | BT-549 110 µM | UACC-62 13.9 µM | Hs-578T 225 µM | IGROV-1 14.3 µM | OVCAR-4 69.7 µM | SK-MEL-5 11.6 µM | NCI-H23 12.2 µM | MDA-MB-231 489 µM | HL-60 20.9 µM | SK-MEL-2 372 µM | OVCAR-5 172 µM

COc1ccc(SCc2cc(OC)ccc2OC)cc1
inactive: CAKI-1 31.9 µM | MDA-N 3.33 µM | UACC-257 74 µM | RPMI-8226 34 µM | T47D 25.5 µM | SF-295 32.2 µM | Malme-3M 55.6 µM | ACHN 97.3 µM | SNB-19 34 µM | BT-549 16.1 µM | UACC-62 18.8 µM | Hs-578T 29.5 µM | IGROV-1 15.9 µM | OVCAR-4 20.8 µM | SK-MEL-5 16.1 µM | NCI-H23 37.9 µM | MDA-MB-231 82.2 µM | HL-60 6.01 µM | SK-MEL-2 8.59 µM | OVCAR-5 24.5 µM

N#CCOc1cccc(C2(N3CC=CCC3)CCCCC2)c1
inactive: CAKI-1 > 100 µM | MDA-N > 100 µM | UACC-257 72.3 µM | RPMI-8226 77.6 µM | T47D > 100 µM | SF-295 > 100 µM | Malme-3M > 100 µM | ACHN > 100 µM | SNB-19 > 100 µM | BT-549 > 100 µM | UACC-62 > 100 µM | Hs-578T > 100 µM | IGROV-1 > 100 µM | OVCAR-4 > 100 µM | SK-MEL-5 > 100 µM | NCI-H23 > 100 µM | MDA-MB-231 > 100 µM | HL-60 83.2 µM | SK-MEL-2 > 100 µM | OVCAR-5 > 100 µM

CC1(C)[C@@H]2CC[C@@]1(C)C1(S[S+]1[O-])C21Cc2ccccc2C1 (stereo not given in full)
inactive: CAKI-1 20.4 µM | MDA-N 17.1 µM | UACC-257 20.9 µM | RPMI-8226 21 µM | T47D 21.6 µM | SF-295 57.1 µM | Malme-3M 38.8 µM | ACHN 20.9 µM | SNB-19 > 100 µM | BT-549 32.1 µM | UACC-62 22.2 µM | Hs-578T 44.2 µM | IGROV-1 17.2 µM | OVCAR-4 15.6 µM | SK-MEL-5 > 10 µM | NCI-H23 31.8 µM | MDA-MB-231 17.3 µM | HL-60 18.1 µM | SK-MEL-2 17.2 µM | OVCAR-5 20.6 µM

COc1ccc(/C=C/c2cnnc3ccccc23)cc1OC
inactive: CAKI-1 > 10 µM | MDA-N > 10 µM | UACC-257 > 10 µM | RPMI-8226 > 10 µM | T47D > 10 µM | SF-295 > 10 µM | Malme-3M > 10 µM | ACHN > 10 µM | SNB-19 > 10 µM | BT-549 > 10 µM | UACC-62 > 10 µM | Hs-578T > 10 µM | IGROV-1 > 10 µM | OVCAR-4 > 10 µM | SK-MEL-5 > 10 µM | NCI-H23 > 10 µM | MDA-MB-231 > 10 µM | HL-60 > 10 µM | SK-MEL-2 > 10 µM | OVCAR-5 > 10 µM
